A short description of experiment [1]: viability loss in THP-1 monocytes – THP-1 cells, cytotoxicity control for Vif-APOBEC3G degradation inhibitor project, dose response (AID 1117359). It counts as functional. The following applies: THP-1.
The next experiment addresses Beta-arrestin-1 (Homo sapiens, UniProt P49407). The experiment can be described thus: beta-arrestin/AP2 interaction blockers, potency – biochemical, cherry pick 1, beta2-adaptin appendage, flow cytometry, dose response (AID 588783). It is filed as functional.
Experiment [2] in a line: Trypanosoma cruzi growth suppression in host cells – NIH3T3 host cells, beta-gal luminescence, confirmation (AID 2044).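 Further: intracellular parasites grown in NIH/3T3 mouse fibroblasts as host cells; luminescent beta-galactosidase reporter signal from transgenic T. cruzi replicating inside host cells; inhibitors lower the luminescence signal.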 It counts as functional, cell-based.
In a further experiment the target is T1, Hexokinase HKDC1 (Homo sapiens, UniProt Q2TB90).
T1 sequence (Q2TB90 whole entry): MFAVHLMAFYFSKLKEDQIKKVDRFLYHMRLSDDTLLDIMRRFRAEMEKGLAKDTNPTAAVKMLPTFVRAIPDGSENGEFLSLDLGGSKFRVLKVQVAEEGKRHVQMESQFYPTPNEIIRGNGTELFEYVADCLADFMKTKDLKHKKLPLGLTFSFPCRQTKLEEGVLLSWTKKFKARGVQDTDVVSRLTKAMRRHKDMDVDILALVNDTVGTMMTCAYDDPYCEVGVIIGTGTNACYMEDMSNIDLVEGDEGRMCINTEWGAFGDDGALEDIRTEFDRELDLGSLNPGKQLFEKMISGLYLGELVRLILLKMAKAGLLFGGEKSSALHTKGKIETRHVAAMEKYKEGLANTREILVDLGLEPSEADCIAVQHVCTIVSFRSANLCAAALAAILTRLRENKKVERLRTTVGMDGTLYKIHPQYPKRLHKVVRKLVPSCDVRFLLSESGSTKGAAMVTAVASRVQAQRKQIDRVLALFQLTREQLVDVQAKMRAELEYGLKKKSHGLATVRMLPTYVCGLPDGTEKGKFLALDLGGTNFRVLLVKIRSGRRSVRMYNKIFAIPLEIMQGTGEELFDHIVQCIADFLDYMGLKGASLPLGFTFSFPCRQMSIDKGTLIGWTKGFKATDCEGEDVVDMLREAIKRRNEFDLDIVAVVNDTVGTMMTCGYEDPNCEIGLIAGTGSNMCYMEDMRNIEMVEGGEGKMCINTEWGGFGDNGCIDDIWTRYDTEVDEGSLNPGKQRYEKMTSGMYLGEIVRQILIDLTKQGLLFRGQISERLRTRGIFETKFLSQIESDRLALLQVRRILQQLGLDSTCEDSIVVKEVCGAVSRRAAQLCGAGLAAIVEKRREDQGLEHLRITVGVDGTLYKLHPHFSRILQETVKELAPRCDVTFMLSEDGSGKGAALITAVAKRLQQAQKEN
The experiment can be described thus: SAR analysis of small molecule inhibitors of hexokinase domain containing I (HKDC1). [Related pubchem assays (depositor defined):AID493160, AID493190]. It is filed as functional.

For a further experiment, the target named is Beta-galactosidase (Escherichia coli, UniProt Q8VNN2). The experiment in a line: detection-enzyme interference by beta-gal modulators – biochemical, E. coli enzyme, set 3, artefact control for CCR6 antagonist project, dose response (AID 504712). It counts as functional.
Experiment [3] has as its target T2, Apoptotic protease-activating factor 1 (Homo sapiens, UniProt O14727).
T2 sequence (O14727 whole entry): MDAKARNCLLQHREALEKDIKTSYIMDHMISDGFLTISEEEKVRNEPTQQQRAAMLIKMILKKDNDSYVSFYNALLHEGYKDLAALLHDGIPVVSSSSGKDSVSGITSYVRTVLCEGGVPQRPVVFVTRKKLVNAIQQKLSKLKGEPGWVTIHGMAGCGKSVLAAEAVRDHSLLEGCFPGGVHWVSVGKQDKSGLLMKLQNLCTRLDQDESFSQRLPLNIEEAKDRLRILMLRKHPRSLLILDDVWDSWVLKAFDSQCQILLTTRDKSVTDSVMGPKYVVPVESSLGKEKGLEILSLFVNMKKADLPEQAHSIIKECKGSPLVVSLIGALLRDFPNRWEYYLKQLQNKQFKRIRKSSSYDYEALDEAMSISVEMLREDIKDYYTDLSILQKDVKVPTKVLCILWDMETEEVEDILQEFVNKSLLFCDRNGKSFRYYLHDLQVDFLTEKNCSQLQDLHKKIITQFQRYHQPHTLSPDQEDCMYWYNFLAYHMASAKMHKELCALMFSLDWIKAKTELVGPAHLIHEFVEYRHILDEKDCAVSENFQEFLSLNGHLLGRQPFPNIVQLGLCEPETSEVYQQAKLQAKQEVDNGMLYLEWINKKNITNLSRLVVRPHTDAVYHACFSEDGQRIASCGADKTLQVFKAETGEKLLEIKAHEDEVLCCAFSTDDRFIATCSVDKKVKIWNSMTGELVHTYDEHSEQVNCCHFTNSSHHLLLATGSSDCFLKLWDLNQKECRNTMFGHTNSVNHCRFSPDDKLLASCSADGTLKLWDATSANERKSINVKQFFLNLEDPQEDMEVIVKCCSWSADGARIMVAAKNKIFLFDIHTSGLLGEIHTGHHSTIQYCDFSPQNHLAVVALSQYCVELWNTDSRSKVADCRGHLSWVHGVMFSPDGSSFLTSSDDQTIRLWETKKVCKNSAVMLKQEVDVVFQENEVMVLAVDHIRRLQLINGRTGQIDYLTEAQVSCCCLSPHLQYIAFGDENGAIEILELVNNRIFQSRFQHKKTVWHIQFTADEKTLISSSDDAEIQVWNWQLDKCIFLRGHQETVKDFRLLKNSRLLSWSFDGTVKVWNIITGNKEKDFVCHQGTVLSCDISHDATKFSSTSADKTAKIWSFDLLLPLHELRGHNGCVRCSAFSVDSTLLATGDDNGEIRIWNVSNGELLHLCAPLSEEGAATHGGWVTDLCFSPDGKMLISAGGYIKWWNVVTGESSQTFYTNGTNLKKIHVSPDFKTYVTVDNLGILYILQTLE
It counts as functional.

Experiment [4] addresses T3, C-C chemokine receptor type 6 (Homo sapiens, UniProt P51684).
T3 sequence (P51684 whole entry): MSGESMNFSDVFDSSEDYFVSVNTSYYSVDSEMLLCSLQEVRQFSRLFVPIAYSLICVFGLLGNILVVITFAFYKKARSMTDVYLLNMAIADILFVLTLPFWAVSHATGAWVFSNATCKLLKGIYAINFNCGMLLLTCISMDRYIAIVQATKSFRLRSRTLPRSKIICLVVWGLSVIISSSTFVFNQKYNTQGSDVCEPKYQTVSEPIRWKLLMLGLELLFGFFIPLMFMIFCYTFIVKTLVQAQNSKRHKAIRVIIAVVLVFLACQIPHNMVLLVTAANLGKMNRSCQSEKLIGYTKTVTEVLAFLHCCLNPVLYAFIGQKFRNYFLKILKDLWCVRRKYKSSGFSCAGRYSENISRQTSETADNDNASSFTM
The experiment can be described thus: antagonism of CCR6 beta-arrestin recruitment – cell-based, luminescent beta-arrestin readout, dose response (AID 504728). It is filed as functional.

The next experiment addresses Keap1/Nrf2 (Homo sapiens, UniProt Q14145). The experiment in a line: disruptors of Keap1 binding to Nrf2 peptide – biochemical, fluorescence polarization, cherry-picked samples, dose response (AID 588683).

From ChEMBL document CHEMBL1201862, “PubChem BioAssay data set” (2004) come the findings set out here.

Calls of active or inactive are those of the source. A value given as a limit tells only on which side of the number the result lay.

Chain of Beta-arrestin-1 (P49407 whole entry): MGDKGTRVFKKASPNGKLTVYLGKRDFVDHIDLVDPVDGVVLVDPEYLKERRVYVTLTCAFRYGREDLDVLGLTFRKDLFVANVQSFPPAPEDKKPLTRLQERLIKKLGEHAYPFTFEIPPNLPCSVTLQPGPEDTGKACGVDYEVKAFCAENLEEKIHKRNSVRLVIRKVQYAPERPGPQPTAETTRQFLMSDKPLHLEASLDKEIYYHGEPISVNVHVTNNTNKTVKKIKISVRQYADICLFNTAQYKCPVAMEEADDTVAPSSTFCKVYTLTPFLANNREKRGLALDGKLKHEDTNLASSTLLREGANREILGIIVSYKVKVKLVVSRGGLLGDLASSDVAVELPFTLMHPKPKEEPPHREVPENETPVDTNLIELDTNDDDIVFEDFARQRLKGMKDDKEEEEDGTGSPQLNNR
Chain of Keap1/Nrf2 (Q16236 whole entry): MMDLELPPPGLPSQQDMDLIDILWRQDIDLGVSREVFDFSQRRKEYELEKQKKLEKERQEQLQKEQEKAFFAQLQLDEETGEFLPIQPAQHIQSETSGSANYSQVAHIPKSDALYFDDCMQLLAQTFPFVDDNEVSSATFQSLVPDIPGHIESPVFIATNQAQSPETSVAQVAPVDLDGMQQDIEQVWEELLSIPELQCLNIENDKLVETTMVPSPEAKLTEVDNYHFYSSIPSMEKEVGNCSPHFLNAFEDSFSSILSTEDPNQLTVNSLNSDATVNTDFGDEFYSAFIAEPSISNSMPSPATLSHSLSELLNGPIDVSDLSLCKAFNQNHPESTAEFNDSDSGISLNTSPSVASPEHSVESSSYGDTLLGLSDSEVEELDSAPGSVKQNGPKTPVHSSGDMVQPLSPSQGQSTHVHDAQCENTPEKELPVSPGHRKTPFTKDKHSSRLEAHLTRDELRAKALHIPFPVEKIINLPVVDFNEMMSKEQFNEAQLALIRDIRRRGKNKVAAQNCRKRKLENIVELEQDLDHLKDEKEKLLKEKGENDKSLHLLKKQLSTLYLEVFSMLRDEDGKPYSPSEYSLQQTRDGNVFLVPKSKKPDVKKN
Chain of Keap1/Nrf2 (Q14145 whole entry): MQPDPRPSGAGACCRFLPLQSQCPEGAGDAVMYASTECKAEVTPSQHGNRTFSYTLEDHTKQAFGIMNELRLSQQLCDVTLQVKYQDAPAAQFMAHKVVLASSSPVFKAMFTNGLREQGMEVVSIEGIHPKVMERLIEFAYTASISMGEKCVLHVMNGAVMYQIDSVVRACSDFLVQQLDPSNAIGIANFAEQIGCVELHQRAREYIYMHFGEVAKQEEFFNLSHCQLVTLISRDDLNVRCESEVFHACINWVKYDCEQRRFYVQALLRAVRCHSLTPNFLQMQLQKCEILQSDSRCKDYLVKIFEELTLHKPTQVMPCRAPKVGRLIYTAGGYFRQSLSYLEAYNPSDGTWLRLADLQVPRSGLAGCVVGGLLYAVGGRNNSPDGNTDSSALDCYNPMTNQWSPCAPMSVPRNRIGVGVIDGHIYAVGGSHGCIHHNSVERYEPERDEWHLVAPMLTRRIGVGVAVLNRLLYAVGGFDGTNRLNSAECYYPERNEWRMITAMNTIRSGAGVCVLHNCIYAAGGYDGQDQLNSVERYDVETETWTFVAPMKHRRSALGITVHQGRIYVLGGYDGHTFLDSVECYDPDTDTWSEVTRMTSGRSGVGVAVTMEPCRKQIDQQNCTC
Chain of Beta-galactosidase (Q8VNN2 whole entry): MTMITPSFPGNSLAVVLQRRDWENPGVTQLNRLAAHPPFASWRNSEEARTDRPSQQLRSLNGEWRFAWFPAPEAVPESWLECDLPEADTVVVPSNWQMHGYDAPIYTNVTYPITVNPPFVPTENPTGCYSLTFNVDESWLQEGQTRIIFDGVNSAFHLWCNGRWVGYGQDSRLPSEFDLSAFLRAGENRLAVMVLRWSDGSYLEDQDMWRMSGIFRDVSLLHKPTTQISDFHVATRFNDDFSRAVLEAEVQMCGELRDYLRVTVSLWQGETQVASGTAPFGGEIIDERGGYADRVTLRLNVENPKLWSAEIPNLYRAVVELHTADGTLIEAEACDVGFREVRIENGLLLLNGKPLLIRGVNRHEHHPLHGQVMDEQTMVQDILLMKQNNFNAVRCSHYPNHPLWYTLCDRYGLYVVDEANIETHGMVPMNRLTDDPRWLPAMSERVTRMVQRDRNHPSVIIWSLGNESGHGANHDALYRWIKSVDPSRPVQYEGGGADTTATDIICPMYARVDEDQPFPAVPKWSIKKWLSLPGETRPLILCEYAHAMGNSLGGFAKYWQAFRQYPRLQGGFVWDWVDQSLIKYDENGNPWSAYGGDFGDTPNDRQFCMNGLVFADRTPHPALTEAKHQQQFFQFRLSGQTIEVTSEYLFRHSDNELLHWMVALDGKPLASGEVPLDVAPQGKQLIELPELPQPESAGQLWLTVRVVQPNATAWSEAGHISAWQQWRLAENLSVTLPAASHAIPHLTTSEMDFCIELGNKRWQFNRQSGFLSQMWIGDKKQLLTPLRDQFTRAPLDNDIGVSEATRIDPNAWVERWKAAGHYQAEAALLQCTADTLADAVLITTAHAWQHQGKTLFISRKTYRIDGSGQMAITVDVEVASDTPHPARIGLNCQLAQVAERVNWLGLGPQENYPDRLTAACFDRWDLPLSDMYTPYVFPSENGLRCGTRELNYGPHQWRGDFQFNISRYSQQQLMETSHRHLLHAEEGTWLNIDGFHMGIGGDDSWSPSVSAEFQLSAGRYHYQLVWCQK

As to `NC(=O)C1CCN(C2=C(Cl)C(=O)c3ccccc3C2=O)CC1`, in experiment [1], the CC50 is 9.71 µM (active). For the same molecule, the IC50 at Beta-arrestin-1 was 22.2 µM (inactive). Also, the EC50 in experiment [2] was 2.18 µM (active).

As for `O=c1c2ccccc2nc(/C=C/c2cccnc2)n1Cc1ccccc1`, the IC50 at Hexokinase HKDC1 is > 80 µM (inactive).

Turning to `COC(=O)c1ccccc1NC1=C/C(=N\S(=O)(=O)c2ccc(C(=O)O)cc2)c2ccccc2C1=O`, the values for the IC50 (on Beta-galactosidase; in experiment [3]; in experiment [4]) were > 66.6 µM (inactive), 7.19 µM (active) and > 66.6 µM (inactive), respectively. Also, at Keap1/Nrf2, the AC50 was > 52 µM (inactive).
